Measured values published in ChEMBL document CHEMBL5244230, “Artemisinin-derived hybrids and their anticancer activity” (Eur J Med Chem, 2020).
Where “and” joins values, the source holds several entries; their conditions need not be identical. Equal entries are not always repeated.

Experiments:
SMMC-7721 = assay: Antiproliferative activity against human SMMC-7721 cells; assay type: functional, cell-based
[1] = Cytotoxicity against human HCEC cells; assay type: toxicity, cell-based
P388 = assay: Anticancer activity against mouse P388 cells; assay type: functional, cell-based
MCF7 [2] = assay: Anticancer activity against human MCF7 cells assessed as inhibition of cell growth; assay type: functional, cell-based
[3] = Anticancer activity against human Lu1 cells; assay type: functional, cell-based
HepG2 [4] = assay: Antiproliferative activity against human HepG2 cells; assay type: functional, cell-based
HL-60 = assay: Anticancer activity against human HL-60 cells; assay type: functional, cell-based
KB = assay: Antiproliferative activity against human KB cells; assay type: functional, cell-based
MCF7 [5] = assay: Anticancer activity against human MCF7 cells; assay type: functional, cell-based
MV4-11 = assay: Antiproliferative activity against human MV4-11 cells; assay type: functional, cell-based
A549 [6] = assay: Antiproliferative activity against human A549 cells; assay type: functional, cell-based
HCT-116 [7] = assay: Antiproliferative activity against human HCT-116 cells; assay type: functional, cell-based
Hep 3B2 = assay: Antiproliferative activity against human Hep3B cells assessed as reduction in cell viability; assay type: functional, cell-based
A2780 = assay: Antiproliferative activity against human A2780 cells assessed as reduction in cell viability; assay type: functional, cell-based
HepG2 [8] = assay: Antiproliferative activity against human HepG2 cells assessed as reduction in cell viability; assay type: functional, cell-based
OVCAR-3 = assay: Antiproliferative activity against human OVCAR-3 cells assessed as reduction in cell viability; assay type: functional, cell-based
HCT-116 [9] = assay: Antiproliferative activity against human HCT-116 cells assessed as reduction in cell viability; assay type: functional, cell-based; conditions: Homo sapiens, HCT-116
HeLa [10] = assay: Antiproliferative activity against human HeLa cells assessed as reduction in cell viability; assay type: functional, cell-based
HCT-15 = assay: Antiproliferative activity against human HCT-15 cells assessed as cell growth inhibition by MTT assay; assay type: functional, cell-based
HepG2 [11] = assay: Antiproliferative activity against human HepG2 cells assessed as cell growth inhibition by MTT assay; assay type: functional, cell-based
A549 [12] = assay: Antiproliferative activity against human A549 cells assessed as cell growth inhibition by MTT assay; assay type: functional, cell-based
SGC-7901 = assay: Antiproliferative activity against human SGC-7901 cells assessed as reduction in cell viability measured for 24 hrs; assay type: functional, cell-based; conditions: SGC-7901, 24 h
A549 [13] = assay: Antiproliferative activity against human A549 cells assessed as reduction in cell viability measured for 24 hrs; assay type: functional, cell-based; conditions: A549, 24 h
PC-3 = assay: Antiproliferative activity against human PC-3 cells assessed as reduction in cell viability measured for 24 hrs; assay type: functional, cell-based; conditions: PC-3, 24 h
HeLa [14] = assay: Cytotoxicity against human HeLa cells assessed as cell viability incubated for 48 hrs by MTT assay; assay type: functional, cell-based

Work on `C[C@H]1[C@H](N2CCS(=O)(=O)[C@H](CCCCCCOC(=O)c3ccc([N+](=O)[O-])cc3C(=O)O)C2)O[C@@H]2O[C@@]3(C)CC[C@H]4[C@H](C)CC[C@@H]1[C@@]24OO3` yielded an IC50 (SMMC-7721) of 0.06 µM.

With `C[C@H]1[C@H](Sc2ccccc2)O[C@@H]2O[C@@]3(C)CC[C@H]4[C@H](C)CC[C@@H]1[C@@]24OO3` the IC50 [1] was 0.93 µM.

In the case of `Cc1c2ccncc2c(C)c2c1[nH]c1ccccc12` [ELLIPTECINE], the IC50 (P388) is reported as 1.7 µM, the IC50 (MCF7 [2]) is reported as 1.7 µM and the IC50 [3] is reported as 1.7 µM. For the same molecule, the IC50 (HepG2 [4]) was 0.93 µM, the IC50 (HL-60) was 1.7 µM and the IC50 (KB) was 0.81 µM. For the same molecule, the IC50 (MCF7 [5]) was 1.7 µM.

In the case of `C[C@H]1[C@@H](OCCc2cn(-c3cccc(C(=O)N4CCCCC4)c3)nn2)O[C@@H]2O[C@@]3(C)CC[C@H]4[C@H](C)CC[C@@H]1[C@@]24OO3`, the IC50 (P388) is reported as 5.7 µM, the IC50 (MCF7 [2]) is reported as 5.7 µM and the IC50 [3] is reported as 5.7 µM. It also gave an IC50 (HL-60) of 5.7 µM and an IC50 (MCF7 [5]) of 5.7 µM.

`COC(=O)c1ccc2c(c1)c(NCC(O)CNC(=O)CCC(=O)O[C@H]1O[C@@H]3O[C@@]4(C)CC[C@H]5[C@H](C)CC[C@@H]([C@H]1C)[C@@]35OO4)c1c3ccccc3nc-1n2C` (some centres undefined) showed an IC50 (MV4-11) of 0.072 µM, an IC50 (A549 [6]) of 0.072 µM and an IC50 (HCT-116 [7]) of 0.072 µM.

`CCN(CC)c1ccc2cc(C(=O)N3CCN(CCC[C@H]4O[C@@H]5O[C@@]6(C)CC[C@H]7[C@H](C)CC[C@@H]([C@H]4C)[C@@]57OO6)CC3)c(=O)oc2c1` gave an IC50 (Hep 3B2) of 2.33 µM, an IC50 (A2780) of 2.33 µM and an IC50 (HepG2 [8]; Homo sapiens, HepG2) of 2.33 µM. For the same molecule, the IC50 (OVCAR-3) was 2.33 µM.

`COC(=O)c1ccc2c(c1)c(NCCCNC(=O)CCC(=O)O[C@H]1O[C@@H]3O[C@@]4(C)CC[C@H]5[C@H](C)CC[C@@H]([C@H]1C)[C@@]35OO4)c1c3ccccc3nc-1n2C` gave an IC50 (MV4-11) of 0.072 µM, an IC50 (A549 [6]) of 0.072 µM and an IC50 (HCT-116 [7]) of 0.072 µM.

`C[C@H]1[C@@H](CCCOP(=O)(O)Oc2ccccc2)O[C@@H]2O[C@@]3(C)CC[C@H]4[C@H](C)CC[C@@H]1[C@@]24OO3` showed an IC50 (HCT-116 [9]) of 3.82 µM and an IC50 (HeLa [10]) of 3.82 µM.

Work on `COC(=O)c1ccc2c(c1)c(NCC(C)(C)CNC(=O)CCC(=O)O[C@H]1O[C@@H]3O[C@@]4(C)CC[C@H]5[C@H](C)CC[C@@H]([C@H]1C)[C@@]35OO4)c1c3ccccc3nc-1n2C` yielded an IC50 (MV4-11) of 0.072 µM, an IC50 (A549 [6]) of 0.072 µM and an IC50 (HCT-116 [7]) of 0.072 µM.

`C[C@H]1[C@@H](Sc2ccccc2)O[C@@H]2O[C@@]3(C)CC[C@H]4[C@H](C)CC[C@@H]1[C@@]24OO3` gave an IC50 [1] of 5.24 µM.

For `C[C@H]1[C@@H](CC(COP(=O)(O)Oc2ccccc2)C[C@H]2O[C@@H]3O[C@]4(C)CC[C@H]5[C@H](C)CC[C@@H]([C@H]2C)[C@@]35OO4)O[C@@H]2O[C@@]3(C)CC[C@H]4[C@H](C)CC[C@@H]1[C@@]24OO3` (some centres undefined), the IC50 (HCT-116 [9]) was 0.04 µM and the IC50 (HeLa [10]) was 0.04 µM.

`C[C@H]1[C@@H](OC(=O)CCC(=O)NCCCNc2c3ccccc3nc3c2[nH]c2ccccc23)O[C@@H]2O[C@@]3(C)CC[C@H]4[C@H](C)CC[C@@H]1[C@@]24OO3` gave an IC50 (MV4-11) of 0.286 µM, an IC50 (A549 [6]) of 0.286 µM and an IC50 (HCT-116 [7]) of 0.286 µM.

In the case of `C[C@@H]1CC[C@@H]2[C@]34OO[C@](C)(CC[C@@H]13)O[C@H]4OC(=O)[C@@]21CC(c2ccccc2)=NO1`, the IC50 (HCT-15) is reported as 4.04 µM, the IC50 (HepG2 [11]) is reported as 4.04 µM and the IC50 (A549 [12]) is reported as 4.04 µM.

`C[C@H]1[C@@H](CCCOP(=O)(Oc2ccccc2)Oc2ccccc2)O[C@@H]2O[C@@]3(C)CC[C@H]4[C@H](C)CC[C@@H]1[C@@]24OO3` showed an IC50 (HCT-116 [9]) of 3.82 µM and an IC50 (HeLa [10]) of 3.82 µM.

With `CCN(CC)c1ccc2cc(C(=O)N3CCN(C(=O)CN4CCN(CCC[C@H]5O[C@@H]6O[C@@]7(C)CC[C@H]8[C@H](C)CC[C@@H]([C@H]5C)[C@@]68OO7)CC4)CC3)c(=O)oc2c1` the IC50 (Hep 3B2) was 2.33 µM, the IC50 (A2780) was 2.33 µM and the IC50 (HepG2 [8]; hepg2) was 2.33 µM and 6.28 µM. For the same molecule, the IC50 (OVCAR-3) was 2.33 µM.

Molecule `COc1ccc(Sc2cccc(C(=O)O[C@@H]3O[C@@H]4O[C@@]5(C)CC[C@H]6[C@H](C)[C@H](O)C[C@@H]([C@H]3C)[C@@]46OO5)c2)cc1` has an IC50 (SGC-7901) of 4.3 µM, an IC50 (A549 [13]) of 4.3 µM and an IC50 (PC-3) of 4.3 µM.

In the case of `O=c1[nH]cc(F)c(=O)[nH]1` [FLUOROURACIL], the IC50 (SGC-7901) is reported as 6.8 µM, the IC50 [1] is reported as greater than 100 µM and the IC50 (A549 [13]) is reported as 6.8 µM. It also gave an IC50 (HCT-15) of 33.7 µM, an IC50 (HepG2 [11]) of 33.7 µM and an IC50 (MCF7 [5]) greater than 40 µM. It also gave an IC50 (PC-3) of 6.8 µM and an IC50 (A549 [12]) of 33.7 µM.

With `C[C@H]1[C@@H](OC(=O)CCC(=O)NCC(C)(C)CNc2c3c4ccccc4nc-3n(C)c3ccc(Cl)cc23)O[C@@H]2O[C@@]3(C)CC[C@H]4[C@H](C)CC[C@@H]1[C@@]24OO3` the IC50 (MV4-11) was 0.072 µM, the IC50 (A549 [6]) was 0.072 µM and the IC50 (HCT-116 [7]) was 0.072 µM.

Molecule `Cc1cn([C@H]2C[C@H](n3cc(CNC(=O)CCCC(=O)O[C@@H]4O[C@@H]5O[C@@]6(C)CC[C@H]7[C@H](C)CC[C@@H]([C@H]4C)[C@@]57OO6)nn3)[C@@H](CO)O2)c(=O)[nH]c1=O` has an IC50 (HepG2 [4]) of 47.6 µM and an IC50 (KB) of 47.6 µM.

For `COc1ccc2nc3cc(Cl)ccc3c(N3CCN(CCNCCO[C@H]4O[C@@H]5O[C@@]6(C)CC[C@H]7[C@H](C)CC[C@@H]([C@H]4C)[C@@]57OO6)CC3)c2c1`, the IC50 (HeLa [14]) was 0.4 µM.

`COc1ccc(Sc2cccc(C(=O)O[C@@H]3O[C@@H]4O[C@@]5(C)CC[C@H]6[C@H](C)[C@H](OC(=O)c7cccc(Sc8ccc(OC)cc8)c7)C[C@@H]([C@H]3C)[C@@]46OO5)c2)cc1` gave an IC50 (SGC-7901) of 1.6 µM, an IC50 (A549 [13]) of 1.6 µM and an IC50 (PC-3) of 1.6 µM.

For `CCN(CC)c1ccc2cc(C(=O)NCCNC(=O)CN3CCN(CCC[C@H]4O[C@@H]5O[C@@]6(C)CC[C@H]7[C@H](C)CC[C@@H]([C@H]4C)[C@@]57OO6)CC3)c(=O)oc2c1`, the IC50 (Hep 3B2) was 2.33 µM, the IC50 (A2780) was 2.33 µM and the IC50 (HepG2 [8]; hepg2) was 2.33 µM and 6.28 µM. For the same molecule, the IC50 (OVCAR-3) was 2.33 µM.

`CC1=CN([C@H]2C[C@H](n3cc(-c4cccc(NC(=O)CCC(=O)O[C@@H]5O[C@@H]6O[C@@]7(C)CC[C@H]8[C@H](C)CC[C@@H]([C@H]5C)[C@@]68OO7)c4)nn3)[C@@H](CO)O2)C(C)NC1=O` (some centres undefined) showed an IC50 (HepG2 [4]) of 47.6 µM and an IC50 (KB) of 47.6 µM.

With `C[C@H]1[C@@H](OC(=O)CCC(=O)NCCCNc2c3c4ccccc4nc-3n(C)c3ccccc23)O[C@@H]2O[C@@]3(C)CC[C@H]4[C@H](C)CC[C@@H]1[C@@]24OO3` the IC50 (MV4-11) was 0.072 µM, the IC50 (A549 [6]) was 0.072 µM and the IC50 (HCT-116 [7]) was 0.072 µM.

`C[C@H]1[C@@H](OC(=O)CCC(=O)NCC(C)(C)CNc2c3c4ccccc4nc-3n(C)c3ccc(Br)cc23)O[C@@H]2O[C@@]3(C)CC[C@H]4[C@H](C)CC[C@@H]1[C@@]24OO3` gave an IC50 (MV4-11) of 0.072 µM, an IC50 (A549 [6]) of 0.072 µM and an IC50 (HCT-116 [7]) of 0.072 µM.

`COc1ccc2c(N3CCN(CCCNCCO[C@H]4O[C@@H]5O[C@@]6(C)CC[C@H]7[C@H](C)CC[C@@H]([C@H]4C)[C@@]57OO6)CC3)c3ccc(Cl)cc3nc2c1` gave an IC50 (HeLa [14]) of 0.8 µM.

With `Cc1cn(C2C[C@H](n3cc(COC(=O)CCC(=O)O[C@@H]4O[C@@H]5O[C@@]6(C)CC[C@H]7[C@H](C)CC[C@@H]([C@H]4C)[C@@]57OO6)nn3)[C@@H](CO)O2)c(=O)[nH]c1=O` (single isomer, unassigned) the IC50 (HepG2 [4]) was 16.5 µM and the IC50 (KB) was 16.5 µM.
